Assay results from ChEMBL document CHEMBL3751697, “Enantiomeric 3-deaza-1',6'-isoneplanocin and its 3-bromo analogue: Synthesis by the Ullmann reaction and their antiviral properties” (Bioorg Med Chem Lett, 2016).
Calls of active or inactive are those of the source. The calls are words filed in the database; no cut-off is given here.

Legend:
[1] = test system: Ebolavirus; assay: Antiviral activity against Zaire ebolavirus infected in human HepG2 cells; format: functional, cell-based; conditions: Orthoebolavirus
[2] = Cytotoxicity against human HepG2 cells; format: cell-based
[3] = test system: Human betaherpesvirus 5; assay: Antiviral activity against Human cytomegalovirus; format: functional, organism-based
[4] = test system: Measles morbillivirus; assay: Antiviral activity against Measles virus; format: functional, organism-based
[5] = test system: Enterovirus C; assay: Antiviral activity against Poliovirus; format: functional, organism-based
[6] = test system: Punta Toro virus; assay: Antiviral activity against Punta Toro virus; format: functional, organism-based
[7] = test system: Venezuelan equine encephalitis virus; assay: Antiviral activity against Venezuelan equine encephalitis virus; format: functional, organism-based
[8] = test system: Vaccinia virus; assay: Antiviral activity against Vaccinia virus; format: functional, organism-based; conditions: Orthopoxvirus vaccinia
[9] = test system: West Nile virus; assay: Antiviral activity against West Nile virus; format: functional, organism-based
[10] = test system: Lyssavirus rabies; assay: Antiviral activity against Rabies virus; format: functional
[11] = test system: Monkeypox virus; assay: Antiviral activity against Monkeypox virus; format: functional, organism-based
[12] = test system: Ebolavirus; assay: Antiviral activity against Zaire ebolavirus infected in African monkey Vero cells; format: functional, cell-based; conditions: Orthoebolavirus
[13] = Cytotoxicity against African monkey Vero cells; format: cell-based; conditions: chlorocebus sabaeus
[14] = Selectivity index, ratio of CC50 for African monkey Vero cells to EC50 for Zaire ebolavirus; format: toxicity, cell-based; conditions: read-out: Ratio CC50/EC50
[15] = test system: Rift Valley fever virus; assay: Antiviral activity against Rift Valley fever virus; format: functional, organism-based
[16] = test system: Tacaribe virus; assay: Antiviral activity against Tacaribe virus; format: functional, organism-based; conditions: Mammarenavirus tacaribeense
[17] = test system: Dengue virus; assay: Antiviral activity against Dengue virus; format: functional, organism-based
[18] = test system: Yellow fever virus; assay: Antiviral activity against Yellow fever virus; format: functional, organism-based
[19] = test system: Hepatitis C virus; assay: Antiviral activity against Hepatitis C virus; format: functional, organism-based; conditions: Hepacivirus hominis
[20] = test system: Chikungunya virus; assay: Antiviral activity against Chikungunya virus; format: functional
[21] = test system: Japanese encephalitis virus; assay: Antiviral activity against Japanese encephalitis virus; format: functional, organism-based
[22] = test system: Nipah virus; assay: Antiviral activity against Nipah virus; format: functional, organism-based; conditions: Henipavirus nipahense
[23] = test system: Hepatitis B virus; assay: Antiviral activity against Hepatitis B virus; format: functional, organism-based
[24] = test system: Norovirus; assay: Antiviral activity against Norovirus; format: functional
[25] = Selectivity index, ratio of CC50 for human HepG2 cells to EC50 for Zaire ebolavirus; format: toxicity, cell-based; conditions: read-out: Ratio CC50/EC50

SMILES | EC50 [1] | EC90 [1] | CC50 [2] | EC50 [3] | Activity [5] | Activity [6] | Activity [7] | Activity [8] | Activity [9] | Activity [10] | Activity [11] | EC50 [4] | EC50 [12] | CC50 [13] | selectivity ratio [14] | Activity [15] | Activity [16] | Activity [17] | Activity [18] | Activity [19] | also measured
Nc1nccc2c1ncn2C1=C[C@@H](CO)[C@H](O)[C@@H]1O | < 320 nM | < 320 nM | > 100000 nM | < 100 nM | inactive | inactive | inactive | inactive | inactive | inactive | inactive | – | – | – | – | – | – | – | – | – | Activity [4]: inactive
Nc1nccc2c1ncn2C1=C[C@H](CO)[C@@H](O)[C@H]1O | < 320 nM | 74100 nM | > 100000 nM | < 100 nM | inactive | inactive | inactive | inactive | inactive | inactive | inactive | < 380 nM | – | – | – | – | – | – | – | – | –
Nc1ncc(Br)c2c1ncn2C1=C[C@H](CO)[C@@H](O)[C@H]1O | – | – | – | < 100 nM | – | – | – | – | – | – | – | < 290 nM | < 100 nM | > 100000 nM | > 1000 | inactive | inactive | inactive | inactive | inactive | Activity [20]: inactive; Activity [21]: inactive; Activity [22]: inactive
Nc1ncc(Br)c2c1ncn2C1=C[C@@H](CO)[C@H](O)[C@@H]1O | – | – | – | < 100 nM | – | – | – | – | – | – | – | < 290 nM | 3510 nM | > 100000 nM | > 28.5 | inactive | inactive | inactive | inactive | inactive | EC50 [23]: 3250 nM; EC50 [24]: 1300 nM; Activity [20]: inactive; Activity [21]: inactive; Activity [22]: inactive
Nc1ncc(Br)c2c1ncn2[C@@H]1C=C(CO)[C@@H](O)[C@H]1O | < 320 nM | 3020 nM | 21100 nM | – | – | – | – | – | – | – | – | – | – | – | – | – | – | – | – | – | selectivity ratio [25]: > 67
